What is called Kd is the concentration at which binding is half-saturated.

Molecules are shown by their SMILES. Bridge positions count the residues as written; N and C are the ends. Square brackets hold non-standard residues; d marks the D form. Peptide text beside a SMILES is read from it. * marks the point of attachment. ξ: configuration not given here. DOTA = O=C(O)CN1CCN(CC(=O)O)CCN(CC(=O)*)CCN(CC(=O)O)CC1; Trp(7-OMe) = COc1cccc2c(C[C@H](N)C(=O)O)c[nH]c12; Phe(4-CF3) = N[C@@H](Cc1ccc(C(F)(F)F)cc1)C(=O)O; Trp(5-F) = N[C@@H](Cc1c[nH]c2ccc(F)cc12)C(=O)O; Trp(7-Me) = Cc1cccc2c(C[C@H](N)C(=O)O)c[nH]c12; Trp(7-aza) = N[C@@H](Cc1c[nH]c2ncccc12)C(=O)O; Pro(trans-4-F) = O=C(O)[C@@H]1C[C@@H](F)CN1; Phe(4-F) = N[C@@H](Cc1ccc(F)cc1)C(=O)O; 1Nal = N[C@@H](Cc1cccc2ccccc12)C(=O)O; 2Nal = N[C@@H](Cc1ccc2ccccc2c1)C(=O)O; Nva(3-Et) = CCC(CC)[C@H](N)C(=O)O; 3Pal = N[C@@H](Cc1cccnc1)C(=O)O; ξThr(3R) = C[C@@H](O)C(N)C(=O)O; Cha = N[C@@H](CC1CCCCC1)C(=O)O; Chg = N[C@H](C(=O)O)C1CCCCC1; Aze = O=C(O)[C@@H]1CCN1; ξK = NCCCCC(N)C(=O)O

The text below walks through data of patent US20250011368A1, “DLL3 TARGETING PEPTIDES AND CONSTRUCTS THEREOF” (MARIANA ONCOLOGY INC., priority 2023, published 2025).

One assay deals with T1, human DLL3 (Homo sapiens, UniProt Q9NYJ7).
T1 sequence (Q9NYJ7 27-618): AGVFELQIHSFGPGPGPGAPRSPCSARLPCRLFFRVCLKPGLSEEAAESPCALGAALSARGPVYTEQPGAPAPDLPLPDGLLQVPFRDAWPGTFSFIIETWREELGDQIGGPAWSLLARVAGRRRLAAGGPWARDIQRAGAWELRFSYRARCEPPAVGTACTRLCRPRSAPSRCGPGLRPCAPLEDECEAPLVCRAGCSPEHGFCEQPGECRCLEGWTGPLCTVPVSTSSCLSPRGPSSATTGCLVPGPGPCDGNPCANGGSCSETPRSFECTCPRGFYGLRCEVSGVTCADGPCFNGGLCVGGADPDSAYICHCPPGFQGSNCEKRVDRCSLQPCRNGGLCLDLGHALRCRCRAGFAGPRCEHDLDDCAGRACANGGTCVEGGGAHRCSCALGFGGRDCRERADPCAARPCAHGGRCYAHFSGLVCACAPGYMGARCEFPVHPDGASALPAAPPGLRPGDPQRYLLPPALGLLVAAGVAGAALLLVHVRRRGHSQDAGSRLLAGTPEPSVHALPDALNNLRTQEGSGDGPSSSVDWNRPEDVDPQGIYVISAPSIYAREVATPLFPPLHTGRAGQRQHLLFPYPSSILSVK
As to the kind of experiment: Affinity determination by Surface Plasmon Resonance (SPR). It counts as binding.
Conditions: not given
The procedure: SPR studies were performed on the compounds disclosed herein using the following protocol.
Biotinylated target ligand human DLL3 was immobilized on a streptavidin sensor chip. A reference surface was set up for nonspecific binding and refractive index changes. For analysis of the kinetics of interactions, varying concentrations of samples were injected at a flow rate of 100 μL/minute using running buffer containing 20 mM phosphate buffer with 2.7 mM KCl, 137 mM NaCl, 0.05% Surfactant P20 and 2% DMSO. Sensorgram curves were fitted with 1:1 binding model, and affinity and kinetic parameters were obtained using Biacore Insight evaluation 4.0. software.
In turn, `CC[C@H](C)[C@H](NC(=O)[C@@H](NC(=O)[C@H](Cc1c[nH]c2ccccc12)NC(C)=O)[C@@H](C)O)C(=O)N[C@H]1CSSC[C@@H](C(=O)N[C@@H](Cc2c[nH]c3ccccc23)C(=O)N2CCC[C@H]2C(=O)N[C@H](CCCCNC(=O)COCCOCCOCCOCCOCCOCCOCCOCCNC(=O)[C@@H](CCCCNC(=O)CN2CCN(CC(=O)O)CCN(CC(=O)O)CCN(CC(=O)O)CC2)NC(=O)CCOCCOCCOCCOCCOCCOCCOCCOCCOCCOCCOCCOCCOCCOCCOCCOCCOCCOCCOCCOCCOCCOCCOCCOCCNC(=O)Cc2ccc(Br)cc2)C(N)=O)NC(=O)[C@H](CC(=O)O)NC(=O)[C@H](Cc2c[nH]cn2)NC(=O)[C@H](Cc2ccc3ccccc3c2)NC(=O)[C@H](CC(N)=O)NC(=O)[C@H](CC(N)=O)NC1=O` [compound 255, Ac-W-T-I-C(3)-N-N-(2Nal)-H-D-C(3)-W-P-{D-Lys[PEG8-D-Lys(DOTA)-PEG24-COCH2Ph-4Br]}-NH2] yielded a Kd of 1 to 10 nM.

Still in this assay, the particulars now being: 25° C., biotinylated human DLL3 immobilized on streptavidin sensor chip, 1:1 binding model; read-out: SPR KD.
Turning to `CC(=O)N[C@@H](Cc1c[nH]c2ccc(F)cc12)C(=O)N[C@H](C(=O)N[C@@H](CC1CCCCC1)C(=O)N[C@H]1CSSC[C@@H](C(=O)N[C@@H](Cc2c[nH]c3ncccc23)C(=O)N2C[C@H](F)C[C@H]2C(=O)N[C@H](CCCCNC(=O)CN2CCN(CC(=O)O)CCN(CC(=O)O)CCN(CC(=O)O)CC2)C(N)=O)NC(=O)[C@H](CC(=O)O)NC(=O)[C@H](Cc2cnc[nH]2)NC(=O)[C@H](Cc2ccc(C(F)(F)F)cc2)NC(=O)[C@H](CC(N)=O)NC(=O)[C@H](CC(N)=O)NC1=O)[C@@H](C)O` [compound 149, Ac-(5Fluoro-W)-T-(CHA)-C(3)-N-N-(4CF3-F)-H-D-C(3)-(7Aza-W)-(trans4Fluoro-P)-[D-Lys(DOTA)]-NH2] (Ac-[Trp(5-F)]T[Cha]CNN[Phe(4-CF3)]HDC[Trp(7-aza)][Pro(trans-4-F)][dK](DOTA)-NH2; disulfide 4-10), the Kd was 1 to 10 nM.
Regarding `CC(=O)N[C@@H](Cc1c[nH]c2ccc(F)cc12)C(=O)N[C@H](C(=O)N[C@H](C(=O)N[C@H]1CSSC[C@@H](C(=O)N[C@@H](Cc2c[nH]c3ncccc23)C(=O)N2C[C@H](F)C[C@H]2C(=O)N[C@H](CCCCNC(=O)CN2CCN(CC(=O)O)CCN(CC(=O)O)CCN(CC(=O)O)CC2)C(N)=O)NC(=O)[C@H](CC(=O)O)NC(=O)[C@H](Cc2cnc[nH]2)NC(=O)[C@H](Cc2ccc3ccccc3c2)NC(=O)[C@H](CC(N)=O)NC(=O)[C@H](CC(N)=O)NC1=O)C1CCCCC1)[C@@H](C)O` [compound 258, Ac-(5Fluoro-W)-T-(Chg)-C(3)-N-N-(2Nal)-H-D-C(3)-(7Aza-W)-(trans4Fluoro-P)-[D-Lys(DOTA)]-NH2] (Ac-[Trp(5-F)]T[Chg]CNN[2Nal]HDC[Trp(7-aza)][Pro(trans-4-F)][dK](DOTA)-NH2; disulfide 4-10), the Kd is less than 1 nM.
`CC[C@H](C)[C@H](NC(=O)[C@@H](NC(=O)[C@H](Cc1c[nH]c2ccccc12)NC(C)=O)[C@@H](C)O)C(=O)N[C@H]1CSSC[C@@H](C(=O)N[C@@H](Cc2c[nH]c3ccccc23)C(=O)N2CCC[C@H]2C(=O)N[C@H](CCCCNC(=O)CN2CCN(CC(=O)O)CCN(CC(=O)O)CCN(CC(=O)O)CC2)C(N)=O)NC(=O)[C@H](CC(=O)O)NC(=O)[C@H](Cc2cnc[nH]2)NC(=O)[C@H](Cc2ccc3ccccc3c2)NC(=O)[C@H](CC(=O)O)NC(=O)[C@H](CC(N)=O)NC1=O` [compound 209, Ac-W-T-I-C(3)-N-(Asp)-(2Nal)-H-D-C(3)-W-P-[D-Lys(DOTA)]-NH2] (Ac-WTICND[2Nal]HDCWP[dK](DOTA)-NH2; disulfide 4-10): the Kd is less than 1 nM.
With `CC[C@H](C)[C@H](NC(=O)[C@@H](NC(=O)[C@H](Cc1c[nH]c2ccccc12)NC(C)=O)[C@@H](C)O)C(=O)N[C@H]1CSSC[C@@H](C(=O)N[C@@H](Cc2c[nH]c3ccccc23)C(=O)N2CCC[C@H]2C(=O)N[C@H](CCCCNC(=O)CN2CCN(CC(=O)O)CCN(CC(=O)O)CCN(CC(=O)O)CC2)C(N)=O)NC(=O)[C@H](CC(=O)O)NC(=O)[C@H](Cc2cnc[nH]2)NC(=O)[C@H](Cc2c[nH]c3c(OC)cccc23)NC(=O)[C@H](CC(N)=O)NC(=O)[C@H](CC(N)=O)NC1=O` [compound 296, Ac-W-T-I-C(3)-N-N-(7-MeO-W)-H-D-C(3)-W-P-[D-Lys(DOTA)]-NH2] (Ac-WTICNN[Trp(7-OMe)]HDCWP[dK](DOTA)-NH2; disulfide 4-10), the Kd was less than 1 nM.
On to `CCC(CC)[C@H](NC(=O)C(NC(=O)[C@H](Cc1c[nH]c2ccccc12)NC(C)=O)[C@@H](C)O)C(=O)N[C@H]1CSSC[C@@H](C(=O)N[C@@H](Cc2c[nH]c3ncccc23)C(=O)N2CCC[C@H]2C(=O)N[C@H](CCCCNC(=O)CN2CCN(CC(=O)O)CCN(CC(=O)O)CCN(CC(=O)O)CC2)C(N)=O)NC(=O)[C@H](CC(=O)O)NC(=O)[C@H](Cc2cnc[nH]2)NC(=O)[C@H](Cc2ccc3ccccc3c2)NC(=O)[C@H](CC(N)=O)NC(=O)[C@H](CC(N)=O)NC1=O` (stereo partly drawn) [compound 193, Ac-W-T-(Env)-C(3)-N-N-(2Nal)-H-D-C(3)-(7-Aza-W)-P-[D-Lys(DOTA)]-NH2] (Ac-W[ξThr(3R)][Nva(3-Et)]CNN[2Nal]HDC[Trp(7-aza)]P[dK](DOTA)-NH2; disulfide 4-10), for which the Kd is less than 1 nM.
Consider `CC[C@H](C)[C@H](NC(=O)[C@@H](NC(=O)[C@H](Cc1c[nH]c2ccccc12)NC(C)=O)[C@@H](C)O)C(=O)N[C@H]1CSSC[C@@H](C(=O)N[C@@H](Cc2c[nH]c3ccccc23)C(=O)N2CCC[C@H]2C(=O)N[C@H](CCCCNC(=O)CN2CCN(CC(=O)O)CCN(CC(=O)O)CCN(CC(=O)O)CC2)C(N)=O)NC(=O)[C@H](CC(=O)O)NC(=O)[C@H](Cc2cnc[nH]2)NC(=O)[C@H](Cc2cccc3ccccc23)NC(=O)[C@H](CC(N)=O)NC(=O)[C@H](CC(N)=O)NC1=O` [compound 74, Ac-W-T-I-C(3)-N-N-(1Nal)-H-D-C(3)-W-P-[D-Lys(DOTA)]-NH2] (Ac-WTICNN[1Nal]HDCWP[dK](DOTA)-NH2; disulfide 4-10), for which the Kd lay within 1 to 10 nM.
Take `CCC(CC)[C@H](NC(=O)[C@@H](NC(=O)[C@H](Cc1c[nH]c2ccc(F)cc12)NC(C)=O)[C@@H](C)O)C(=O)N[C@H]1CSSC[C@@H](C(=O)N[C@@H](Cc2c[nH]c3ncccc23)C(=O)N2CC[C@H]2C(=O)NC(CCCCNC(=O)CN2CCN(CC(=O)O)CCN(CC(=O)O)CCN(CC(=O)O)CC2)C(N)=O)NC(=O)[C@H](CC(=O)O)NC(=O)[C@H](Cc2cnc[nH]2)NC(=O)[C@H](Cc2ccc(F)cc2)NC(=O)[C@H](CC(N)=O)NC(=O)[C@H](CC(N)=O)NC1=O` (stereo partly drawn) [compound 122, Ac-(5Fluoro-W)-T-(Env)-C(3)-N-N-(4Fluoro-F)-H-D-C(3)-(7Aza-W)-(Aze)-[D-Lys(DOTA)]-NH2] (Ac-[Trp(5-F)]T[Nva(3-Et)]CNN[Phe(4-F)]HDC[Trp(7-aza)][Aze][ξK](DOTA)-NH2; disulfide 4-10): the Kd lay in the range of 1 to 10 nM.
Consider `CC[C@H](C)[C@H](NC(=O)[C@@H](NC(=O)[C@H](Cc1c[nH]c2c(C)cccc12)NC(C)=O)[C@@H](C)O)C(=O)N[C@H]1CSSC[C@@H](C(=O)N[C@@H](Cc2c[nH]c3ccccc23)C(=O)N2CCC[C@H]2C(=O)N[C@H](CCCCNC(=O)CN2CCN(CC(=O)O)CCN(CC(=O)O)CCN(CC(=O)O)CC2)C(N)=O)NC(=O)[C@H](CC(=O)O)NC(=O)[C@H](Cc2cnc[nH]2)NC(=O)[C@H](Cc2ccc3ccccc3c2)NC(=O)[C@H](CC(N)=O)NC(=O)[C@H](CC(N)=O)NC1=O` [compound 206, Ac-(7-Me-W)-T-I-C(3)-N-N-(2Nal)-H-D-C(3)-W-P-[D-Lys(DOTA)]-NH2] (Ac-[Trp(7-Me)]TICNN[2Nal]HDCWP[dK](DOTA)-NH2; disulfide 4-10), for which the Kd is less than 1 nM.
In the case of `CC(=O)N[C@@H](Cc1c[nH]c2ccc(F)cc12)C(=O)N[C@H](C(=O)N[C@@H](CC1CCCCC1)C(=O)N[C@H]1CSSC[C@@H](C(=O)N[C@@H](Cc2c[nH]c3ncccc23)C(=O)N2CC[C@H]2C(=O)N[C@H](CCCCNC(=O)CN2CCN(CC(=O)O)CCN(CC(=O)O)CCN(CC(=O)O)CC2)C(N)=O)NC(=O)[C@H](CC(=O)O)NC(=O)[C@H](Cc2cnc[nH]2)NC(=O)[C@H](Cc2ccc(F)cc2)NC(=O)[C@H](CC(N)=O)NC(=O)[C@H](CC(N)=O)NC1=O)[C@@H](C)O` [compound 125, Ac-(5Fluoro-W)-T-(CHA)-C(3)-N-N-(4Fluoro-F)-H-D-C(3)-(7Aza-W)-(Aze)-[D-Lys(DOTA)]-NH2] (Ac-[Trp(5-F)]T[Cha]CNN[Phe(4-F)]HDC[Trp(7-aza)][Aze][dK](DOTA)-NH2; disulfide 4-10), the Kd is 1 to 10 nM.
The same measure, in the same setting: the same measure for `CC(=O)N[C@@H](Cc1c[nH]c2ccccc12)C(=O)N[C@H](C(=O)N[C@H](C(=O)N[C@H]1CSSC[C@@H](C(=O)N[C@@H](Cc2c[nH]c3ccccc23)C(=O)N2CCC[C@H]2C(=O)N[C@H](CCCCNC(=O)CN2CCN(CC(=O)O)CCN(CC(=O)O)CCN(CC(=O)O)CC2)C(N)=O)NC(=O)[C@H](CC(=O)O)NC(=O)[C@H](Cc2cnc[nH]2)NC(=O)[C@H](Cc2ccc3ccccc3c2)NC(=O)[C@H](CC(N)=O)NC(=O)[C@H](Cc2cccnc2)NC1=O)C1CCCCC1)[C@@H](C)O` [compound 287, Ac-W-T-(Chg)-C(3)-(3Pya)-N-(2Nal)-H-D-C(3)-W-P-[D-Lys(DOTA)]-NH2] (Ac-WT[Chg]C[3Pal]N[2Nal]HDCWP[dK](DOTA)-NH2; disulfide 4-10): less than 1 nM.
